Measured values reported in patent US6379900B1, “Compositions and methods of use of 8-nitroguanine” (Conceptual Mindworks, Inc., priority 2000, dated 2002).

Tests used:
Calf Thymus DNA = assay: Viscosity studies of DNA exposed to peroxynitrite (depurination and strand breakage); type: biochemical
Description: As the degree of DNA damage increases, the likelihood of two single stranded breaks occurring within a few bases on the opposite strands of double-stranded DNA also increases. Double-stranded DNA breaks result in a decrease in the length of the DNA molecule, detectable as a decreased viscosity of linear double-stranded DNA. This method was also used to assay for depurination and DNA strand breakage. Stock solutions of Sigma Calf Thymus DNA were made by dissolving DNA in 0.1 M Na2HPO4, pH 8, 0.1 M sodium cacodylate, pH 5, 0.1 M Tris, pH 8, and 0.1 M borate, pH 8. The final volume for all viscosity experiments was 40 ml and the DNA concentration was 420 μg/ml. […] The data was recorded as the relative viscosity and specific viscosity of the solution.

[1] = test system: supercoiled pUC19 plasmid DNA; assay: Conversion of supercoiled plasmid DNA to open circles (single-stranded DNA breaks) by peroxynitrite; type: biochemical, E coli
Procedure: E coli strain JM109 containing plasmid DNA (pUC19) was grown in 2 ml of M9 media to which 24 μl of 2.5 mg/ml ampicillin was added. Following incubation for approximately 8 hours, the culture was transferred to 50 ml of M9 media containing ampicillin. The following day, 25 ml of the overnight culture was used to inoculate 500 ml of M9 media containing ampicillin. When the optical density at 600 nm of the bacterial culture reached between 0.6 and 0.8 O.D., 50 mg of chloramphenicol, dissolved in 1 ml of absolute ethanol, was added to the culture and the culture was incubated overnight. The next morning, cells were harvested by centrifugation. Plasmid DNA was isolated using a Promega Wizard MaxiPrep Kit. Cells were resuspended in resuspension solution, and lysis buffer was added. The buffer was neutralized after 20 min, the solution was centrifuged and the supernatant collected. To the supernatant was added 0.5 volumes of isopropanol, which caused the DNA to precipitate. […] After removing the fine particles the DNA was ready for use. Its concentration was measured by absorbance at 260 nm (0.2 OD units=10 μg/ml). Plasmid DNA was analyzed by electrophoresis in TAE buffer using a 1% agarose gel. […] DNA was analyzed as described above. The effect of peroxynitrite concentration on the conversion of supercoils to open circles was determined at pH 5, 6, 7, 8, and 9. […] DNA was analyzed as described above. […]

[2] = cited from earlier work

Compound | activation energy of the depurination reaction (formation of single-stranded DNA nicks) (Calf Thymus DNA; Arrhenius analysis) [Joules/mole] | viscosity of DNA solution with time of exposure (Calf Thymus DNA; all pH values, 37° C., within the first two hours of exposure) | reduction in DNA supercoiling ([1]; minimum observed under the conditions of the study, constant peroxynitrite concentration) [%] | conversion of supercoiled plasmid DNA to open circles ([1]; pH 4 to 10, 30 minutes at room temperature) | pKa ([2]; acid form of peroxynitrite) | half life ([2]; pH 7.4) [s]
O=NOO [peroxynitrite] | 917 | Viscosity decreased | ≥ 45 | effective at converting supercoiled plasmid DNA to open circles at all pHs | – | –
O=NOO [peroxynitrous acid] | – | – | – | – | 6.8 | 1.9
